Structures can show the parent of a compound that is named as a salt.

Sequence of BRG1 (P51532 1448-1575): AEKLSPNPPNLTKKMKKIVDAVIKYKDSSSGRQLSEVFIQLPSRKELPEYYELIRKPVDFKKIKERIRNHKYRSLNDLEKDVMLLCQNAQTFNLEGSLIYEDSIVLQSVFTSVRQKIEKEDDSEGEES

For this assay, the target named is BRG1 (Homo sapiens, UniProt P51532). Put plainly: biochemical. In kind it is binding. As to conditions: BRG1 HTRF IC50 (µM). An excerpt:
IC50 measurements for inhibitors using BRG1 TR-FRET Binding Assay
`CNC(=O)CN1CCN(c2cc(-c3ccccc3O)nnc2N)C[C@H]1C` [Example 148, (R)-2-(4-(3-amino-6-(2-hydroxyphenyl)pyridazin-4-yl)-2-methylpiperazin-1-yl)-N-methylacetamide] registered an IC50 of 0.0613 µM. This lies in the double-digit nanomolar range.
In the case of `Nc1nnc(-c2ccccc2O)cc1N1CCN(S(=O)(=O)c2ccccc2)CC1` [Example 11, 2-(6-amino-5-(4-(phenylsulfonyl)piperazin-1-yl)pyridazin-3-yl)phenol], it took 0.0612 µM to reach half-maximal inhibition (IC50). This IC50 and that of the compound before are within 1.5-fold of each other.
Compound `CC(C(=O)N(C)C)n1cc(-c2cc(-c3ccccc3O)nnc2N)cn1` (stereo not shown) [Example 194, 2-(4-(3-amino-6-(2-hydroxyphenyl)pyridazin-4-yl)-1 H-pyrazol-1-yl)-N,N-dimethylpropanamide] had an IC50 of 0.0247 µM.
Take `Nc1nnc(-c2cc(F)cc(F)c2O)cc1-c1ccccc1` [Example 232, 2-(6-amino-5-phenylpyridazin-3-yl)-4,6-difluorophenol]: 0.176 µM corresponded to half-maximal inhibition (IC50).
Under `CC1CN(c2cc(-c3ccccc3O)nnc2N)CCN1C(=O)c1cccnc1` (stereo not shown) [Example 135, (4-(3-amino-6-(2-hydroxyphenyl)pyridazin-4-yl)-2-methylpiperazin-1-yl)(pyridin-3-yl)methanone] stands 0.0446 µM; under `Nc1nnc(-c2cc(F)ccc2O)cc1-c1ccccc1` [Example 230, 2-(6-amino-5-phenylpyridazin-3-yl)-4-fluorophenol], 0.0549 µM; under `Nc1nnc(-c2ccccc2O)cc1N1C[C@H]2C[C@@H]1CN2c1ccccn1` [Example 74, 2-(6-amino-5-((1R,4R)-5-(pyridin-2-yl)-2,5-diazabicyclo[2.2.1]heptan-2-yl)pyridazin-3-yl)phenol], 0.0106 µM.
The same measure for `C[C@@H](C(=O)N(C)C)n1cc(-c2cc(-c3ccccc3O)nnc2N)cn1` [Example 196, 2-(4-(3-Amino-6-(2-hvdroxyphenyl)pyridazin-4-vl)-1H-pvrazol-1-yl)-N,N-dimethylpropanamide]: 0.0247 µM.
On to `Nc1nnc(-c2ccccc2O)cc1OC1CCN(c2ccccc2)C1` (stereo not shown) [Example 184, 2-(6-amino-5-((1-phenylpyrrolidin-3-yl)oxy)pyridazin-3-yl)phenol], for which the midpoint of inhibition, the IC50, lay at 0.192 µM.
The same measure for `Nc1nnc(-c2ccccc2O)cc1N1CCN(Cc2ccccc2)CC1` [Example 12, 2-(6-amino-5-(4-benzylpiperazin-1-yl)pyridazin-3-yl)phenol]: 0.0612 µM; for `C[C@@H]1CN(c2cc(-c3ccccc3O)nnc2N)CCN1C(=O)C(C)(C)O` [Example 145, (R)-1-(4-(3-amino-6-(2-hydroxyphenyl)pyridazin-4-yl)-2-methylpiperazin-1-yl)-2-hydroxy-2-methylpropan-1-one]: 0.0642 µM.
Regarding `CN1CCOC2(CCN(c3cc(-c4ccccc4O)nnc3N)CC2)C1` [Example 25, 2-(6-amino-5-(4-methyl-1-oxa-4,9-diazaspiro[5.5]undecan-9-yl)pyridazin-3-yl)phenol], the IC50 came to 0.0176 µM.
`Nc1nnc(-c2ccccc2O)cc1N1CC2CCC(C1)N2c1cncnc1` [Example 43, 2-(6-amino-5-(8-(pyrimidin-5-yl)-3,8-diazabicyclo[3.2.1]octan-3-yl)pyridazin-3-yl)phenol] had an IC50 of 0.0193 µM. This IC50 and that of the compound before are within 1.5-fold of each other.
The same measure for `C[C@H](Oc1cc(-c2ccccc2O)nnc1N)c1cccnc1` [Example 167, (S)-2-(6-amino-5-(1-(pyridin-3-yl)ethoxy)pyridazin-3-yl)phenol]: 0.0251 µM; for `Nc1nnc(-c2ccccc2O)cc1C1CCN(S(=O)(=O)c2ccccc2)CC1` [Example 224, 2-(6-amino-5-(1-(phenylsulfonyl)piperidin-4-yl)pyridazin-3-yl)phenol]: 0.0602 µM; for `CC(=O)Nc1ccc(-c2ccccc2O)nn1` [Example 205, N-(6-(2-hydroxyphenyl)pyridazin-3-yl)acetamide]: 1.08 µM.
As to `Nc1nnc(-c2ccccc2O)cc1N1CCN(Cc2ccncc2)CC1` [Example 98, 2-[6-amino-5-[4-(4-pyridylmethyl)piperazin-1-yl]pyridazin-3-yl]phenol], half-maximal inhibition (IC50) was put at 0.0796 µM.
Under `CCS(=O)(=O)N1CCN(c2cc(-c3ccccc3O)nnc2N)CC1C` (stereo not shown) [Example 110, 2-(6-amino-5-(4-(ethylsulfonyl)-3-methylpiperazin-1-yl)pyridazin-3-yl)phenol] stands 0.0219 µM.
The same measure for `CN1CCCC(Oc2cc(-c3ccccc3O)nnc2N)C1` (stereo not shown) [Example 246, 2-(6-amino-5-((1-methylpiperidin-3-yl)oxy)pyridazin-3-yl)phenol]: 0.26 µM; for `Nc1nnc(-c2ccccc2O)cc1C1CCNC1` (stereo not shown) [Example 215, 2-(6-amino-5-(pyrrolidin-3-yl)pyridazin-3-yl)phenol hydrochloride]: 0.743 µM.
Under `Nc1nnc(-c2ccccc2O)cc1N1CCNC(Cc2ccccc2)C1` (stereo not shown) [Example 49, 2-(6-amino-5-(3-benzylpiperazin-1-yl)pyridazin-3-yl)phenol] stands 0.0848 µM; under `Nc1nnc(-c2ccccc2O)cc1N1CCC2(CC1)CNC(=O)C2` [Example 29, 8-(3-amino-6-(2-hydroxyphenyl)pyridazin-4-yl)-2,8-diazaspiro[4.5]decan-3-one], 0.0566 µM.
With `CC(C)(O)C(=O)N1CCC(c2cc(-c3ccccc3O)nnc2N)CC1` [Example 229, 1-(4-(3-amino-6-(2-hydroxyphenyl)pyridazin-4-yl)piperidin-1-yl)-2-hydroxy-2-methylpropan-1-one], the IC50 worked out at 0.0437 µM.
The same measure for `C[C@H]1CN(c2cc(-c3ccccc3O)nnc2N)CCN1C(=O)[C@@H]1CCCO1` [Example 142, ((S)-4-(3-amino-6-(2-hydroxyphenyl)pyridazin-4-yl)-2-methylpiperazin-1-yl)((S)-tetrahydrofuran-2-yl)methanone]: 0.0975 µM; for `CN(C)C(=O)N1C2CCC1CN(c1cc(-c3ccccc3O)nnc1N)C2` [Example 121, 3-(3-amino-6-(2-hydroxyphenyl)pyridazin-4-yl)-N,N-dimethyl-3,8-diazabicyclo[3.2.1]octane-8-carboxamide]: 0.0225 µM; for `Nc1nnc(-c2ccccc2O)cc1C1CCCN(Cc2ccccc2)C1` (stereo not shown) [Example 214, 2-[6-amino-5-(1-benzyl-3-piperidyl)pyridazin-3-yl]phenol]: 0.112 µM.
The same measure for `CC(=O)N1CCC(c2cc(-c3ccccc3O)nnc2N)CC1` [Example 227, 1-(4-(3-amino-6-(2-hydroxyphenyl)pyridazin-4-yl)piperidin-1-yl)ethanone]: 0.0848 µM.
Under `CN1CCC(c2cc(-c3ccccc3O)nnc2N)C1` (stereo not shown) [Example 216, 2-(6-amino-5-(1-methylpyrrolidin-3-yl)pyridazin-3-yl)phenol 2,2,2-trifluoroacetate] stands 0.765 µM; under `CC(C)[C@H](N)C(=O)N1CCN(c2cc(-c3ccccc3O)nnc2N)CC1C` (stereo partly drawn) [Example 140, (2S)-2-amino-1-(4-(3-amino-6-(2-hydroxyphenyl)pyridazin-4-yl)-2-methylpiperazin-1-yl)-3-methylbutan-1-one], 0.0475 µM; under `Cc1noc(C)c1C(=O)N1CCN(c2cc(-c3ccccc3O)nnc2N)CC1C` (stereo not shown) [Example 123, (4-(3-amino-6-(2-hydroxyphenyl)pyridazin-4-yl)-2-methylpiperazin-1-yl)(3,5-dimethylisoxazol-4-yl)methanone], 0.0879 µM.
The compound `CC(C(=O)N(C)C)n1cnc(-c2cc(-c3ccccc3O)nnc2N)c1` (stereo not shown) [Example 197, 2-(4-(3-amino-6-(2-hydroxyphenyl)pyridazin-4-yl)-1H-imidazol-1-yl)-N,N-dimethylpropanamide] returned an IC50 of 0.0339 µM.
For the compound `C[C@@H]1CN(c2cc(-c3ccccc3O)nnc2N)CCN1C(=O)[C@@H]1CCCO1` [Example 141, ((R)-4-(3-amino-6-(2-hydroxyphenyl)pyridazin-4-yl)-2-methylpiperazin-1-yl)((S)-tetrahydrofuran-2-yl)methanone], the IC50 was determined as 0.033 µM.
The same measure for `Nc1nnc(-c2ccccc2O)cc1N1CCN(c2ccccc2)C(=O)C1` [Example 64, 4-(3-amino-6-(2-hydroxyphenyl)pyridazin-4-yl)-1-phenylpiperazin-2-one]: 0.208 µM; for `C[C@@H]1CN(c2cc(-c3ccccc3O)nnc2N)CCN1C(=O)c1cccnc1` [Example 156]: 0.0435 µM.
`C[C@@H](C1CCN(c2cc(-c3ccccc3O)nnc2N)CC1)N(C)C` [Example 60, (S)-2-(6-amino-5-(4-(1-(dimethylamino)ethyl)piperidin-1-yl)pyridazin-3-yl)phenol] yielded an IC50 of 0.0247 µM.
The same measure for `CN(CCc1ccccc1)c1cc(-c2ccccc2O)nnc1N` [Example 36, 2-(6-amino-5-(methyl(phenethyl)amino)pyridazin-3-yl)phenol]: 0.0962 µM.
For the compound `Nc1nnc(-c2ccccc2O)cc1OC1CCCCC1` [Example 179, 2-(6-amino-5-(cyclohexyloxy)pyridazin-3-yl)phenol], the IC50 amounted to 0.0451 µM.
Under `Nc1nnc(-c2ccccc2O)cc1N1CCC(O)(Cc2ccccc2)C1` (stereo not shown) [Example 39, 1-(3-amino-6-(2-hydroxyphenyl)pyridazin-4-yl)-3-benzylpyrrolidin-3-ol] stands 0.113 µM; under `Nc1nnc(-c2ccccc2O)cc1N1CCN(Cc2n[nH]c3ccccc23)CC1` [Example 102, 2-[6-amino-5-[4-(1H-indazol-3-ylmethyl)piperazin-1-yl]pyridazin-3-yl]phenol], 0.0259 µM.
The same measure for `CC1(C)CN(c2cc(-c3ccccc3O)nnc2N)CCN1S(C)(=O)=O` [Example 112, 2-(6-amino-5-(3,3-dimethyl-4-(methylsulfonyl)piperazin-1-yl)pyridazin-3-yl)phenol]: 0.0307 µM; for `Nc1nnc(-c2ccccc2O)cc1N1CCS(=O)(=O)CC1` [Example 46, 4-(3-amino-6-(2-hydroxyphenyl)pyridazin-4-yl)thiomorpholine 1,1-dioxide]: 0.414 µM.
Take `Nc1nnc(-c2ccccc2O)cc1N1CCC(O)(c2ccccc2)CC1` [Example 42, 1-(3-amino-6-(2-hydroxyphenyl)pyridazin-4-yl)-4-phenylpiperidin-4-ol]: the IC50 amounted to 0.0113 µM.
The same measure for `CN(C)C1CCN(c2cc(-c3ccccc3O)nnc2N)CC1` [Example 91, 2-[6-amino-5-[4-(dimethylamino)-1-piperidyl]pyridazin-3-yl]phenol]: 0.0929 µM.

The values above are taken from patent publication EP3262036B1, “THERAPEUTIC PYRIDAZINE COMPOUNDS AND USES THEREOF” (priority 2015, dated 2016).
